Test results published in publication PMC8327158, “PEGylated AdipoRon derivatives improve glucose and lipid metabolism under insulinopenic and high-fat diet conditions” (Journal of Lipid Research, 2021).
Converted amounts (≈) assume the structure as drawn. “And” between values parts separate entries of the source, which are not always exact repeats. Identical values can stand only once.

Key:
INS-1 cells = test: Ceramide and dihydroceramide levels in PA-stressed INS-1 cells by mass spectrometry; type: cell-based, rat; settings: 24 h, PA 0.25 mM; for Ceramides 14:0 / Ceramides 16:0 / Ceramides 18:0 / Ceramides 18:1 / Ceramides 20:0 / Ceramides 22:0 / Ceramides 24:0 / Ceramides 24:1 / Ceramides 26:0 / Ceramides 26:1 / Dihydroceramides 16:0 / Dihydroceramides 18:0 / Dihydroceramides 20:0 / Dihydroceramides 22:0 / Dihydroceramides 24:0 / Dihydroceramides 24:1: INS1 cells, three replicates
Method: INS-1 cells were seeded at 2 × 10^6/well in a 6-well plate. Cells were treated as follows for 24 h: (i) Control: No FBS or PA (0.25 mM); (ii) Positive Control: 10% FBS + PA (0.25 mM); (iii) Adiponectin (10 nM) + PA (0.25 mM); (iv) AdipoRonPEG6HTL (10 nM) + PA (0.25 mM); (v) AdipoRonPEG6HTL (1 μM) + PA (0.25 mM); (vi) AdipoRonPEG5 (1 μM) + PA (0.25 mM); (vii) AdipoRonPEG5 (20 μM) + PA (0.25 mM). Thereafter, treatment was aspirated, and the cells were washed with cold PBS x 2, scraped off with 1–2 ml PBS, and spun down at 2,500 rpm for 5 min. The supernatant was aspirated, and the pallet was stored at […] for sphingolipid analysis.
Flash-frozen tissue samples (~40 mg) in a borosilicate glass tube were quenched with 2.0 ml of organic extraction solvent (isopropanol: ethyl acetate, 15:85; v:v) and homogenized with a mechanical tissue disruptor. Immediately afterward, 20 μl of organic internal standard solution was added (Ceramide/Sphingoid Internal Standard Mixture II diluted 1:10 in ethanol). The mixture was vortexed for 20 s and sonicated in ultrasonic bath for 40 min at 40°C. The organic extract was allowed to reach room temperature, and 1.5 ml of HPLC water was added and a two-phase liquid-liquid extraction was performed. The upper phase was transferred to a new clean tube, and the lower aqueous phase containing the protein pellet was re-extracted with additional 2.0 ml of organic extraction solvent. The organic phases were combined and dried under nitrogen stream at 40°C. Dried extracts were stored at –80°C until analysis. For analysis of ceramides and sphingoid base species, the dried residues were reconstituted in 200 μl of methanol. Sphingomyelins required a sample dilution of 1:50 in methanol prior to analysis. Serum sphingolipids were extracted using a similar methodology requiring 25 μl of serum.
In total, 5 μl of reconstituted samples was injected into an LC/MS/MS system for the analysis of ceramides and sphingoid bases, and 1 μl injection was required for the analysis of sphingomyelins. The system consisted of a Shimadzu LCMS-8050 triple-quadrupole mass spectrometer with the dual ion source operating in electrospray positive ionization mode. The mass spectrometer is coupled to a Shimadzu Nexera X2 UHPLC system equipped with three solvent delivery modules LC-30AD, three degassing units DGU-20A5R, an autosampler SIL-30ACMP, and a column oven CTO-20AC operating at 40°C (Shimadzu Scientific Instruments, Columbia, MD). Six sphingoid bases (d18:1 sphingosine, d18:1 sphingosine-1-phosphate, d18:1 deoxysphingosine, d18:0 sphinganine, d18:0 sphinganine-1-phosphate, d18:0 deoxysphinganine) and […] ceramide species and their metabolites (C16:0, C16:0 dihydroceramide, C16:0 glucosylceramide, C16:0 lactosylceramide, C16:0 sphingomyelin, C18:0, C18:0 dihydroceramide, C18:0 glucosylceramide, C18:0 sphingomyelin, C18:1, C20:0, C22:0, C22:0 glucosylceramide, C24:0, C24:0 dihydroceramide, C24:0 lactosylceramide, C24:0 sphingomyelin, C24:1, C24:1 dihydroceramide, C24:1 glucosylceramide, C24:1 sphingomyelin). Quantitative analysis of sphingolipids was achieved using selective reaction monitoring scan mode. Lipid separation was achieved by reverse phase LC on a 2.1 (i.d.) × 150 mm Ascentis Express C8, 2.7 micron (Supelco, Bellefonte, PA) column under gradient elution, using three different mobile phases: eluent A consisting of methanol/water/formic acid, 600/400/0.8, v/v/v with 5 mM ammonium formate, eluent B consisting of methanol/formic acid, 1,000/0.8, v/v with 5 mM ammonium formate, and eluent C consisting of CH3OH/CH2Cl2 350/650. The concentration of each metabolite was determined according to calibration curves using the peak-area ratio of analyte versus corresponding internal standard. Calibration curves were generated using serial dilutions of each target analyte.

[1] = set-up: method as in https://www.caymanchem.com/pdfs/15941.pdf; settings: ref https://www.caymanchem.com/pdfs/15941.pdf; cited from earlier work
[2] = set-up: method as in PMID 24172895; settings: oral administration at 50 mg kg−1 body weight; cited from earlier work

Compound: O=C(COc1ccc(C(=O)c2ccccc2)cc1)NC1CCN(Cc2ccc(OCCOCCOCCOCCOCCO)cc2)CC1 [AdipoRonPEG5]
- C22:0 and C24:0 ceramides (INS-1 cells; 1 μM): significantly reduced
- overall dihydroceramide and ceramides levels (INS-1 cells): markedly lowered
- Ceramides 14:0 (INS-1 cells; 1 μM): 11.37 pg/mg and 8.34 pg/mg and 8.44 pg/mg
- Ceramides 16:0 (INS-1 cells; 1 μM): 132.31 pg/mg and 60.25 pg/mg and 97.74 pg/mg
- Ceramides 18:0 (INS-1 cells; 1 μM): 285.84 pg/mg and 108.83 pg/mg and 172.70 pg/mg
- Ceramides 18:1 (INS-1 cells; 1 μM): 2.60 pg/mg and 1.60 pg/mg and 2.34 pg/mg
- Ceramides 20:0 (INS-1 cells; 1 μM): 81.47 pg/mg and 94.91 pg/mg and 71.51 pg/mg
- Ceramides 22:0 (INS-1 cells; 1 μM): 502.13 pg/mg and 501.01 pg/mg and 352.24 pg/mg
- Ceramides 24:0 (INS-1 cells; 1 μM): 985.21 pg/mg and 942.22 pg/mg and 715.38 pg/mg
- Ceramides 24:1 (INS-1 cells; 1 μM): 415.25 pg/mg and 405.60 pg/mg and 306.31 pg/mg
- Ceramides 26:0 (INS-1 cells; 1 μM): 13.63 pg/mg and 11.39 pg/mg and 10.09 pg/mg
- Ceramides 26:1 (INS-1 cells; 1 μM): 4.83 pg/mg and 4.31 pg/mg and 3.39 pg/mg
- Dihydroceramides 16:0 (INS-1 cells; 1 μM): 20.35 pg/mg and 15.35 pg/mg and 22.55 pg/mg
- Dihydroceramides 18:0 (INS-1 cells; 1 μM): 114.43 pg/mg and 74.94 pg/mg and 73.63 pg/mg
- Dihydroceramides 20:0 (INS-1 cells; 1 μM): 37.94 pg/mg and 40.41 pg/mg and 33.11 pg/mg
- Dihydroceramides 22:0 (INS-1 cells; 1 μM): 124.23 pg/mg and 124.34 pg/mg and 96.61 pg/mg
- Dihydroceramides 24:0 (INS-1 cells; 1 μM): 149.67 pg/mg and 168.38 pg/mg and 120.04 pg/mg
- Dihydroceramides 24:1 (INS-1 cells; 1 μM): 47.95 pg/mg and 51.21 pg/mg and 34.41 pg/mg
- Ceramides 14:0 (INS-1 cells; 20 μM): 13.47 pg/mg and 7.61 pg/mg and 10.59 pg/mg
- Ceramides 16:0 (INS-1 cells; 20 μM): 264.29 pg/mg and 93.09 pg/mg and 72.49 pg/mg
- Ceramides 18:0 (INS-1 cells; 20 μM): 442.08 pg/mg and 170.74 pg/mg and 152.01 pg/mg
- Ceramides 18:1 (INS-1 cells; 20 μM): 3.76 pg/mg and 2.21 pg/mg and 1.71 pg/mg
- Ceramides 20:0 (INS-1 cells; 20 μM): 86.19 pg/mg and 75.99 pg/mg and 78.87 pg/mg
- Ceramides 22:0 (INS-1 cells; 20 μM): 345.37 pg/mg and 441.95 pg/mg and 372.15 pg/mg
- Ceramides 24:0 (INS-1 cells; 20 μM): 827.24 pg/mg and 951.19 pg/mg and 835.47 pg/mg
- Ceramides 24:1 (INS-1 cells; 20 μM): 377.12 pg/mg and 400.62 pg/mg and 388.65 pg/mg
- Ceramides 26:0 (INS-1 cells; 20 μM): 9.40 pg/mg and 10.66 pg/mg and 9.87 pg/mg
- Ceramides 26:1 (INS-1 cells; 20 μM): 3.59 pg/mg and 4.43 pg/mg and 3.78 pg/mg
- Dihydroceramides 16:0 (INS-1 cells; 20 μM): 24.81 pg/mg and 12.98 pg/mg and 10.56 pg/mg
- Dihydroceramides 18:0 (INS-1 cells; 20 μM): 94.22 pg/mg and 32.83 pg/mg and 48.23 pg/mg
- Dihydroceramides 20:0 (INS-1 cells; 20 μM): 22.59 pg/mg and 15.72 pg/mg and 18.47 pg/mg
- Dihydroceramides 22:0 (INS-1 cells; 20 μM): 48.91 pg/mg and 46.89 pg/mg and 48.41 pg/mg
- Dihydroceramides 24:0 (INS-1 cells; 20 μM): 58.93 pg/mg and 62.29 pg/mg and 62.49 pg/mg
- Dihydroceramides 24:1 (INS-1 cells; 20 μM): 21.44 pg/mg and 23.79 pg/mg and 23.03 pg/mg

Compound: O=C(COc1ccc(C(=O)c2ccccc2)cc1)NC1CCN(Cc2ccccc2)CC1 [AdipoRon]
- solubility in neutral phosphate buffer containing >30% DMSO [1]: 250 µg/mL (≈ 583 µM)
- maximal plasma concentration [2]: 11.8 µM
